Patent US7713969B2, “Compositions and methods for treatment of cancer” (ArQule, Inc., priority 2005, dated 2010)

Legend:
[1] = system: HT29; test: Cell viability MTS assay; type: cell-based, human
Protocol: (§1) Cell viability was determined by measuring the activity of dehydrogenase enzymes in metabolically active cells using a tetrazolium compound, MTS. The assay was performed as described in Promega Technical Bulletin No. 169 (CellTiter 96 Aqueous Non-Radioactive Cell Proliferation Assay). Thirteen human cancer cell lines were assayed (see, e.g., Table 1). Cells were maintained at 37° C., 5% CO2. Adherent cells were maintained DMEM media (4.5 g/L glucose) supplemented with 15% heat-inactivated FBS, 10 mM L-glutamine, and 10 mM Hepes pH 7.5. Suspension cells were maintained in RPMI 1640 media, supplemented with 10% heat-inactivated FBS and 10 mM Hepes pH 7.5. Briefly, cells were seeded in 96-well plates as set forth in Table 1 and incubated for 16-24 hours. Candidate compounds were serially diluted in DMSO, further diluted in cell culture media, and then added to cells (final DMSO concentration of 0.33%). Cells were incubated in the presence of candidate compound for 72 hours. MTS stock solution (MTS 2 gm/L, PMS […] in PBS) was added to the cells (final concentration MTS […] and PMS 7.67 mg/L) and incubated for 4 hours. SDS was added to a final concentration of 1.4% and absorbance at 490 nm was measured within two hours using a platereader. The IC50 was defined as the concentration of compound that results in a 50% reduction in the number of viable cells as compwered to control wells treated with DMSO only (0.33%) and was calculated using non-linear regression analyswas. IC50 values were given in Table 2 for the compounds listed.

[2] = system: MDA-MB-231; test: Cell viability MTS assay; type: cell-based, human
Protocol: as §1

[3] = Homo sapiens, HT-29, 72 hours with compound
[4] = Homo sapiens, MDA-MB-231, 72 hours with compound

Row | Compound | IC50 [1, 3] | IC50 [2, 4] | IC50 ([1]; 72 hours with compound) | IC50 ([2]; 72 hours with compound)
1 | 3-(4-Benzoyloxyphenyl)-4-(5,6-dihydro-4H-pyrrolo[3,2,1-ij]quinolin-1-yl)-pyrrole-2,5-dione [Example 29] |  |  | > 100 µM | > 100 µM
2 | 3-(5,6-dihydro-4H-pyrrolo[3,2,1-ij]quinolin-1-yl)-4-(4-fluorophenyl)-1H-pyrrole-2,5-dione [Example 67] |  |  | 53.1 µM | 
3 | O=C1[C@@H](c2c[nH]c3ccccc23)[C@H](c2cn3c4c(cccc24)CCC3)C(=O)N1COP(=O)(O)O (racemic) [(±)-Phosphoric acid mono-[trans-3-(5,6-dihydro-4H-pyrrolo[3,2,1-ij]quinolin-1-yl)-4-(1H-indol-3-yl)-2,5-dioxo-pyrrolidin-1-ylmethyl]ester] | 4.45 µM | 5.89 µM |  | 
4 | O=C1NC(=O)[C@@H](c2cn3c4c(cccc24)CCC3)[C@@H]1c1c[nH]c2ccc(-c3cccc4ccccc34)cc12 (racemic) [Example 37, (±)-Trans-3-(5,6-dihydro-4H-pyrrolo[3,2,1-ij]quinolin-1yl)-4-(5-(1-naphthyl)-1H-indol-3-yl)pyrrolidine-2,5-dione] | 37.4 µM | 43.4 µM |  | 
5 | COc1ccc(-c2ccc3[nH]cc([C@@H]4C(=O)NC(=O)[C@H]4c4cn5c6c(cccc46)CCC5)c3c2)cc1 (racemic) [Example 38, (±)-Trans-3-(5,6-dihydro-4H-pyrrolo[3,2,1-ij]quinolin-1yl)-4-(5-(4-methoxyphenyl)-1H-indol-3-yl)pyrrolidine-2,5-dione] | 10.6 µM | 13.1 µM |  | 
6 | Cc1cccc(-c2ccc3[nH]cc([C@@H]4C(=O)NC(=O)[C@H]4c4cn5c6c(cccc46)CCC5)c3c2)c1 (racemic) [Example 39, (±)-Trans-3-(5,6-dihydro-4H-pyrrolo[3,2,1-ij]quinolin-1yl)-4-(5-(3-methylphenyl)-1H-indol-3-yl)pyrrolidine-2,5-dione] | 10.5 µM |  |  | 
7 | (±)-Trans-3-(5,6-dihydro-4H-pyrrolo[3,2,1-ij]quinolin-1-yl)-4-(4-fluorophenyl)pyrrolidine-2,5-dione [Example 70] |  |  | 26.2 µM | 

Second part, led by results:

Row | IC50 [1, 3] | IC50 [2, 4] | Compound | IC50 ([1]; 72 hours with compound) | IC50 ([2]; 72 hours with compound)
8 | 10.5 µM |  | O=C1NC(=O)[C@@H](c2cn3c4c(cccc24)CCC3)[C@@H]1c1ccc(F)cc1Cl (racemic) [Example 40, (±)-Trans-3-(5,6-dihydro-4H-pyrrolo[3,2,1-ij]quinolin-1yl)-4-(2-chloro-4-fluorophenyl)pyrrolidine-2,5-dione] |  | 
9 | 4.65 µM | 7.63 µM | O=C1NC(=O)[C@@H](c2cn3c4c(cccc24)CCC3)[C@@H]1c1c(Cl)cccc1Cl (racemic) [Example 41, (±)-Trans-3-(5,6-dihydro-4H-pyrrolo[3,2,1-ij]quinolin-1yl)-4-(2,6-dichlorophenyl)pyrrolidine-2,5-dione] |  | 
10 | 44.1 µM | 49.6 µM | O=C1NC(=O)[C@@H](c2cn3c4c(cccc24)CCC3)[C@@H]1c1ccc(Br)cc1 (racemic) [Example 42, (±)-Trans-3-(5,6-dihydro-4H-pyrrolo[3,2,1-ij]quinolin-1yl)-4-(4-bromophenyl)pyrrolidine-2,5-dione] |  | 
11 | 14.6 µM |  | O=C1NC(=O)[C@@H](c2cn3c4c(cccc24)CCC3)[C@@H]1c1ccccc1 (racemic) [Example 49, (±)-Trans-3-(5,6-dihydro-4H-pyrrolo[3,2,1-ij]quinolin-1yl)-4-phenyl-pyrrolidine-2,5-dione] |  | 
12 |  | 49.2 µM | O=C1NC(=O)[C@@H](c2cn3c4c(cccc24)CCC3)[C@@H]1c1ccc(F)cc1 (racemic) [Example 70, (±)-Trans-3-(5,6-dihydro-4H-pyrrolo[3,2,1-ij]quinolin-1-yl)-4-(4-fluorophenyl)pyrrolidine-2,5-dione] |  | 
13 |  | 57 µM | O=C1NC(=O)C(c2cn3c4c(cccc24)CCC3)=C1c1ccc(F)cc1 [Example 67, 3-(5,6-dihydro-4H-pyrrolo[3,2,1-ij]quinolin-1-yl)-4-(4-fluorophenyl)-1H-pyrrole-2,5-dione] |  | 
